Legend:
[1] = molecular target: Ac-AChBP (Aplysia californica, UniProt Q8WSF8); test: biochemical; type: binding
[2] = molecular target: Ls-AChBP (Lymnaea stagnalis, UniProt P58154); test: biochemical; type: binding
[3] = molecular target: human α3β2 nAChR (Homo sapiens, UniProt P17787+P32297); test: cell-based; type: cell-based
Chain of human α3β2 nAChR (P32297 32-505 limits assumed): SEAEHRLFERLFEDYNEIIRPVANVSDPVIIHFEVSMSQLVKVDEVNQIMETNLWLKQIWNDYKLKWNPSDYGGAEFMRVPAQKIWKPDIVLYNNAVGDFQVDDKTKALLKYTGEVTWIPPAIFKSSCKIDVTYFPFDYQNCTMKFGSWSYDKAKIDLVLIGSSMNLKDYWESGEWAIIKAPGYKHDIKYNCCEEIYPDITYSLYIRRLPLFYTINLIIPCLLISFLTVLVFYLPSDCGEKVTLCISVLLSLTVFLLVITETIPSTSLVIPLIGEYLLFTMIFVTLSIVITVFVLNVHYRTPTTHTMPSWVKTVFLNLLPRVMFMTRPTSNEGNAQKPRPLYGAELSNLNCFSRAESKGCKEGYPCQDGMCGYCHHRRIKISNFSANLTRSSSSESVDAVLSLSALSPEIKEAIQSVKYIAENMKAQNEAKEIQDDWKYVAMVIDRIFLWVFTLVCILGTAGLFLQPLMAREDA
Chain of human α3β2 nAChR (P17787 26-502 limits assumed): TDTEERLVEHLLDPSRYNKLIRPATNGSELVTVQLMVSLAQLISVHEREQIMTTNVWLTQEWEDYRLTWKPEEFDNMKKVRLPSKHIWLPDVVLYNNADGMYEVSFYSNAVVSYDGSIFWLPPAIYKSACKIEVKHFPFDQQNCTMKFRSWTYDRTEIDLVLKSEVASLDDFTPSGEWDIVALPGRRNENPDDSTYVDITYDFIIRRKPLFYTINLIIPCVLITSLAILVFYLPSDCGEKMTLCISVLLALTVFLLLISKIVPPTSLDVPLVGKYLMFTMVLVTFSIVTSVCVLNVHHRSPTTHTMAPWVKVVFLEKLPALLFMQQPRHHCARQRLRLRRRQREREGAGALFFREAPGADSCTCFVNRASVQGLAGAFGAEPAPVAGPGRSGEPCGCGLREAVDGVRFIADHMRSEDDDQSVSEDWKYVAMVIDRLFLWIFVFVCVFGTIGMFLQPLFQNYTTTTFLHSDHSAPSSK

Chain of Ls-AChBP (P58154 20-229 limits assumed): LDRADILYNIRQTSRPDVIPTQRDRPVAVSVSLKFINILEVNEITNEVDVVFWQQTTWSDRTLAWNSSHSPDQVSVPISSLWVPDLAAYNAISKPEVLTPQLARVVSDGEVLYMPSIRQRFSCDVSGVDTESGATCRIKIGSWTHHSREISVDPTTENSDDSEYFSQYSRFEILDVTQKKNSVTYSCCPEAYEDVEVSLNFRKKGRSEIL
Chain of Ac-AChBP (Q8WSF8 20-236 limits assumed): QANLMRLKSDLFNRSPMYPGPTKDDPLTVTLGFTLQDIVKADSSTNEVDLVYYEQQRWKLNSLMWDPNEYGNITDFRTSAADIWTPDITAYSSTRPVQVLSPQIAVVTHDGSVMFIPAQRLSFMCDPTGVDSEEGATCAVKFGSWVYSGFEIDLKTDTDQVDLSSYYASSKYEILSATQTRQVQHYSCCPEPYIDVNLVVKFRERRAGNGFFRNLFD

Molecule `CC[C@H](C)[C@@H]1NC(=O)[C@H](Cc2cnc[nH]2)NC(=O)[C@H](CCC(N)=O)NC(=O)[C@H](CC(N)=O)NC(=O)[C@H](CC(N)=O)NC(=O)CNC(=O)[C@H](C)NC(=O)[C@@H]2CSSC[C@H](NC(=O)CN)C(=O)N[C@@H](CSSC[C@@H](C(N)=O)NC1=O)C(=O)N[C@@H](CO)C(=O)N[C@@H](Cc1cnc[nH]1)C(=O)N1CCC[C@H]1C(=O)N[C@@H](C)C(=O)N2` [GIC, α-conotoxin GIC] has an IC50 [1] of 29 ± 2 nM, a Ki [2] of 220 ± 10 nM and an IC50 [3] of 1.13 nM.

— PMC4772116 (Scientific Reports, 2016)
